{"source": "patent US20180312539A1", "about": "“METHODS FOR PREPARING HIGH THROUGHPUT PEPTIDOMIMETICS, ORALLY BIOAVAILABLE DRUGS AND COMPOSITIONS CONTAINING SAME” (University of Southern California, priority 2011, published 2018)", "key": {"[1]": {"conditions": "mouse, in vivo, iv, 10 mg/kg", "description": "200 μL of peptide was administered by IV injection into the tail vein of C57BL6 mice at a dose of 10 mg/kg. 50 μL blood samples were taken at various time points by orbital bleeding using heparin coated capillary tubes and isoflurane for anesthesia. Samples are diluted to 600 μLin TE buffer (pH=8.0) then filtered by centrifugation through a 3000 MWCO filter. The flowthrough was analyzed on a Shimadzu RF-5301 PC fluorometer. Time points were integrated and analyzed using Prism 5.0 software.\nTo that end mice were administered peptide conjugated to fluorescein by IV injection into the tail vein. Blood samples were taken by orbital bleeding. Blood peptide concentration was determined by comparing fluorescence to a 15 minute time point."}, "SKBR-3 cells": {"system": "SKBR-3 cells", "assay_type": "cell-based, human", "protocol": "Proliferation was measured by standard BrdU cell proliferation assay (Calbiochem). Cell lines were plated in 96-well plates (20,000 cells/well) in D-10 media with indicated amount of peptide with 2% DMSO, and incubated overnight. The BrdU compound was given to the cells for 2 hrs. Following the manufacturer's protocol, samples were analyzed by UV absorbance measurements at 450 nm. Peptide signal was normalized to cells incubated with 2% DMSO but no peptide. IC50 data was generated by fitting the data to a drug response equation (Log(drug) vs. Response, GraphPad Prism 5.0).\nThe peptides were then screened for function using a standard in vitro assays used to test efficacy of Her-2 targeting molecules. The assay involved analyzing a molecule's ability to inhibit proliferation in cell culture. A widely used kit is the BrdU cell proliferation assay. In this assay, cells are incubated with the molecule of interest before having their media supplemented with a bromodeoxyuridine. Bromodeoxyuridine is incorporated into the DNA of proliferating cells. DNA with this modified base is recognized with an antibody, and quantitated by ELISA. Applicants tested the peptides and compared them with their parental molecules."}, "blood sugar": {"system": "blood sugar", "assay": "Blood glucose response to insulin", "assay_type": "in vivo, C57BL6 mice", "conditions": "oral gavage, 7 nmol/kg", "protocol": "Experimental procedure followed previously published protocols with slight modification, see e.g., (McKern, N. M., et al. (2006) Nature 443:218; Schïffer, L., et al (2003) PNAS 100:4435). Briefly, C57BL6 mice (4 in each group) fasted overnight and were anesthetized using isoflurane prior to taking blood samples by orbital bleeding. Mice were dosed with insulin or biotinylated insulin at a concentration of 3.5 nmol/kg by IV injection into the tail vein. […] In all cases, insulin was in 150 μL of 50 mM sodium phosphate buffer (pH=8.0). Blood was analyzed on a standard Clarity Plus blood glucose meter (VWR). Readings were normalized to a T=0 blood sugar measurement, and analyzed on Graphpad 5.0.\nReacting human insulin with biotin-NHS produced three distinct products that can be separated by HPLC. […] Calceti, P. et al. (2004) European Journal of Pharmaceutical Sciences 22:315; and Tuesca, A., et al. (2009) Pharmaceutical Research 26:727.\nBiotinylated insulin and insulin were fed to mice by oral gavage. […] The longer duration of response is likely due to the kinetics of absorption by the intestinal mucosa."}, "[2]": {"conditions": "as known in the field; cited from earlier work"}}, "note": "*1 amine or outer side, *2 acyl side, *3 side chain or, on linkers, in order; H or OH if unused. Where a SMILES comes first, the peptide text is derived from it. Bridges are numbered along the chain shown (N, C = ends). [ ]: non-standard residue; d: D form. Glutaryl = O=C(CCCC(=O)[*:2])[*:1]; NMeNva = CCC[C@H](NC)C(=O)O", "data": [{"compound": "CC[C@H](C)[C@@H]1NC(=O)[C@H](CCSC)NC(=O)CCCC(=O)NCCCC[C@@H](C(N)=O)NC(=O)[C@H]([C@@H](C)O)NC(=O)CNC(=O)[C@H](C)NC(=O)[C@H](C(C)C)NC(=O)[C@H](Cc2ccccc2)NC(=O)[C@H](CCC(=O)O)NC(=O)[C@H](Cc2ccc(O)cc2)NC(=O)[C@H](Cc2c[nH]c3ccccc23)NC(=O)[C@H]([C@@H](C)O)NC1=O", "note": "[cycGIBP, reference compound] (MITWYEFVAGTK-NH2; linker N-12 via Glutaryl)", "values": [{"measurement": "half-life", "setting": "[1]", "result": 3.1, "unit": "min"}]}, {"compound": "CCC[C@H]1C(=O)N(C)[C@@H](CCC)C(=O)N[C@@H](CC(C)C)C(=O)N[C@@H](Cc2ccc(O)cc2)C(=O)N[C@@H](CC(=O)O)C(=O)N[C@@H](CC(=O)O)C(=O)N[C@H](C(N)=O)CCCCNC(=O)CCCC(=O)N[C@@H](CCSC)C(=O)N[C@@H](C(C)C)C(=O)N[C@@H](CS)C(=O)N1C", "note": "[Peptide D] (MVC[NMeNva][NMeNva]LYDDK-NH2; linker N-10 via Glutaryl (inferred); C-terminus assumed)", "values": [{"measurement": "fold improvement with respect to parental molecule", "setting": "SKBR-3 cells; EC50/IC50 ratio, peptide 1 vs HRAP, peptide D vs ANHP", "result": "~110", "unit": "fold"}, {"measurement": "proliferation relative to untreated cells (maximal effect)", "setting": "SKBR-3 cells; concentrations significantly above the EC50", "result": 56, "unit": "%"}]}, {"compound": "insulin: unmodified human insulin [reference compound]", "values": [{"measurement": "effect on blood sugar", "setting": "blood sugar", "result": "no effect on blood sugar"}]}, {"compound": "biotinylated insulin: human insulin singly biotinylated on the N-terminus of the B-chain", "values": [{"measurement": "effect on blood sugar", "setting": "blood sugar", "result": "produced a typical insulin response"}]}, {"compound": "CCCCCC/C=C\\CCCCCCCC(=O)O", "note": "[palmitoleic acid]", "values": [{"measurement": "oral bioavailability", "setting": "[2]", "result": "~100", "unit": "%"}]}]}
